According to patent US20210009583A1, “DEUTERATED IMIDAZOPYRIDINES” (UNIVERSITY OF NOTRE DAME DU LAC, priority 2018, published 2021):
“And” between values parts separate entries of the source, which are not always exact repeats. Equal entries are not always repeated. “Also recorded” adds a separate entry of the source. Where two headings read alike, the source gives them in different places. Marks after values point to notes of the source that are not given here.

What was measured:
[1] = Single dose pharmacokinetic study after oral administration, with and without ABT pre-dosing; assay type: in vivo, female Balb/c mice; settings: for % AUC Extrap / Cmax / AUC(0-inf) / Tmax / half-life / AUC: female Balb/c mice, single oral dose 200 mg/kg; for concentration at 0.5 h / concentration at 2 h / concentration at 4 h / AUC(0-x)/Dose / AUC(0-∞)/Dose / Cmax/Dose / concentration at 8 h / concentration at 12 h / concentration at 24 h: female, Balb/c; for concentration at 0.5 h / concentration at 2 h / concentration at 4 h / AUC(0-x)/Dose / AUC(0-∞)/Dose / Cmax/Dose / concentration at 8 h / concentration at 12 h / Cmax / AUC(0-inf) / Tmax / half-life / AUC / concentration at 24 h: mouse, in vivo; for AUC: read-out: AUC(0-x)
Description: Based on MIC and acute toxicity data, two compounds ND-011176 and a deuterated analog ND-012101 were selected for evaluation in a single dose pharmacokinetic study (with and without pre-dosing of 1-Aminobenzotriazole, ABT) after oral administration to female Balb/c mice.
All animals were administered with the prepared test article via oral gavage at a target dose level of 200 mg/kg and at the dose volume detailed in the table 1 below. Each animal in Groups 2, 4, 6, 8 and 10 received a dose of ABT (100 mg/kg) via oral gavage two hours prior to Test Article administration.
Whole blood samples (0.1 mL each) were collected at the first time point via submandibular vein (SMV), or an appropriate peripheral vein if it was necessary. Up to 0.5 mL of whole blood was collected at terminal blood collection via intra cardiac puncture (ICP). For animals 1-3 from each of the 10 Groups, blood samples were collected at 0.5 and 4 hours after oral dosing. […]
The plasma samples and dose formulation samples were analyzed by the Testing Facility to determine the concentration of the test article using LC-MS/MS. PK parameters were estimated from the plasma concentration-time data by standard non-compartmental methods utilizing suitable analysis software.

[2] = Body weight at gross necropsy after 4 weeks of treatment (chronic model); assay type: in vivo, Balb/c mouse; settings: individual mice
Description: When evaluated in the “Chronic Balb/c mouse model” of M. tuberculosis infection by the method of Lenaerts, A. J., et. al. 2005. Preclinical testing of the nitroimidazopyran PA-824 for activity against M. tuberculosis in a series of in vitro and in vivo models. AAC. 49(6):2294-301. ND-012101 at 200 mg/kg and ND-012101(100 mg/kg)+ABT (100 mg/kg) both achieved 100% mouse survival after 4 weeks of oral dosing.

[3] = system: M. tuberculosis; experiment: Chronic Balb/c mouse model of M. tuberculosis infection; assay type: in vivo; settings: for CFU drop (bacteriostatic activity) / Mouse survival: 4 weeks of oral dosing; for Spleen, gross necropsy observation: after 4 weeks of treatment, individual mice; for Lung Log10 CFU ± SEM / Spleen Log10 CFU ± SEM / Log reduction vs CTL (Lg) / Log reduction vs CTL (Sp): 4 Week Treatment; for Log reduction vs CTL (Lg): lung; for Log reduction vs CTL (Sp): spleen
[4] = system: TB infection; settings: cited from earlier work
[5] = 0.5 h, PO 200 mg/kg + 100 mg/kg ABT
[6] = 0.5 h, PO 200 mg/kg, no ABT, 200 mg/kg
[7] = 2 h, PO 200 mg/kg + 100 mg/kg ABT
[8] = 2 h, PO 200 mg/kg, no ABT, 200 mg/kg
[9] = 4 h, PO 200 mg/kg + 100 mg/kg ABT
[10] = 4 h, PO 200 mg/kg, no ABT, 200 mg/kg
[11] = 5 h (mean of the "8" and "12" TP samples taken before euthanasia), PO 200 mg/kg + 100 mg/kg ABT
[12] = 8 h, PO 200 mg/kg, no ABT, 200 mg/kg
[13] = 12 h, PO 200 mg/kg, no ABT, 200 mg/kg
[14] = 0.5 h, PO 200 mg/kg + 100 mg/kg ABT, read-out: Drug plasma concentration, Average
[15] = 0.5 h, PO 200 mg/kg + 100 mg/kg ABT, read-out: Drug plasma concentration, individual mice
[16] = 2 h, PO 200 mg/kg + 100 mg/kg ABT, read-out: Drug plasma concentration, Average
[17] = 2 h, PO 200 mg/kg + 100 mg/kg ABT, read-out: Drug plasma concentration, individual mice
[18] = 4 h, PO 200 mg/kg + 100 mg/kg ABT, read-out: Drug plasma concentration, Average
[19] = 4 h, PO 200 mg/kg + 100 mg/kg ABT, read-out: Drug plasma concentration, individual mice
[20] = po, 200 mg/kg, 0.5 h, PO 200 mg/kg, no ABT, read-out: Drug plasma concentration, Average
[21] = po, 200 mg/kg, 0.5 h, PO 200 mg/kg, no ABT, read-out: Drug plasma concentration, individual mice
[22] = po, 200 mg/kg, 2 h, PO 200 mg/kg, no ABT, read-out: Drug plasma concentration, Average
[23] = po, 200 mg/kg, 4 h, PO 200 mg/kg, no ABT, read-out: Drug plasma concentration, Average
[24] = po, 200 mg/kg, 8 h, PO 200 mg/kg, no ABT, read-out: Drug plasma concentration, Average
[25] = po, 200 mg/kg, 12 h, PO 200 mg/kg, no ABT, read-out: Drug plasma concentration, Average
[26] = po, 200 mg/kg, 12 h, PO 200 mg/kg, no ABT, read-out: Drug plasma concentration, individual mice
[27] = ABT 100 mg/kg PO 2 h before, manually added from the TA concentration data

## [2H]c1c(C([2H])([2H])[2H])c([2H])n2c(C(=O)NCc3ccc(C(F)(F)F)cc3)c(C)nc2c1[2H] [ND-012101]
[1]; [5]
  Drug plasma concentration, individual mice: 22700 ng/mL and 19100 ng/mL
[1]; [6]
  Drug plasma concentration, individual mice: 23100 ng/mL and 19900 ng/mL
[1]; [7]
  Drug plasma concentration, individual mice: 37700 ng/mL and 35500 ng/mL
[1]; [8]
  Drug plasma concentration, individual mice: 7900 ng/mL and 3080 ng/mL and 4590 ng/mL
[1]; [9]
  Drug plasma concentration, individual mice: 47200 ng/mL and 35000 ng/mL
[1]; [10]
  Drug plasma concentration, individual mice: 1350 ng/mL and 3490 ng/mL and 966 ng/mL
[1]; [11]
  Drug plasma concentration, Average: 50017^^ ng/mL
  Drug plasma concentration, individual mice: 49100^^ ng/mL and 47600^^ ng/mL and 53350^^ ng/mL
[1]; [12]
  Drug plasma concentration, individual mice: 67.6 ng/mL and 22.3 ng/mL and 100 ng/mL
[1]; [13]
  Drug plasma concentration, individual mice: 2.10 ng/mL and 1.19 ng/mL
[1]; 24 h, PO 200 mg/kg, no ABT
  Drug plasma concentration, individual mice: BQL
[1]; no ABT
  % AUC Extrap: 0.00%
  AUC(0-inf): 25000 ng·h/mL
  Cmax: 19200 ng/mL
  Tmax: 60 min
  half-life: 47.4 min
  AUC: 25000 ng·h/mL
[1]; [14]
  concentration at 0.5 h: 21700 ng/mL
[1]; [15]
  concentration at 0.5 h: 23300 ng/mL
[1]; [16]
  concentration at 2 h: 34300 ng/mL
[1]; [17]
  concentration at 2 h: 29800 ng/mL
[1]; [18]
  concentration at 4 h: 43500 ng/mL
[1]; [19]
  concentration at 4 h: 48200 ng/mL
[1]; po, 200 mg/kg
  AUC(0-x)/Dose: 125 ng·h/mL/mg/kg
  AUC(0-∞)/Dose: 125 ng·h/mL/mg/kg
  Cmax/Dose: 96 ng/mL/mg/kg
[1]; [20]
  concentration at 0.5 h: 19200 ng/mL
[1]; [21]
  concentration at 0.5 h: 14700 ng/mL
[1]; [22]
  concentration at 2 h: 5190 ng/mL
[1]; [23]
  concentration at 4 h: 1940 ng/mL
[1]; [24]
  concentration at 8 h: 63 ng/mL
[1]; [25]
  concentration at 12 h: 2 ng/mL
[1]; [26]
  concentration at 12 h: 2 ng/mL
[1]; [27]
  Cmax: 48400 ng/mL
[2]; Group 3, ND-012101 + ABT
  Weight: 20.4 (2×) and 20.8 and 20.0 and 20.5 and 18.6
[2]; Group 6, ND-012101 alone
  Weight: 21.5 (2×) and 20.7 and 20.3 and 19.9 and 20.8
[3]; 100 mg/kg + ABT 100 mg/kg
  CFU drop (bacteriostatic activity): < 1 log CFU
  Mouse survival: 100%
[3]; 200 mg/kg
  CFU drop (bacteriostatic activity): < 1 log CFU
  Mouse survival: 100%
[3]; Group 3, ND-012101 + ABT
  Spleen, gross necropsy observation: Slightly enlarged
[3]; Group 6, ND-012101 alone
  Spleen, gross necropsy observation: Slightly enlarged; also recorded: normal
[3]; ND-012101 (100) + ABT (100)
  Lung Log10 CFU ± SEM: 5.62 ± 0.06 Log10 CFU
  Spleen Log10 CFU ± SEM: 4.80 ± 0.14 Log10 CFU
  Log reduction vs CTL (Lg): 0.17
  Log reduction vs CTL (Sp): 0.20
[3]; ND-012101 (200)
  Lung Log10 CFU ± SEM: 5.93 ± 0.08 Log10 CFU
  Spleen Log10 CFU ± SEM: 5.02 ± 0.08 Log10 CFU
  Log reduction vs CTL (Lg): −0.14
  Log reduction vs CTL (Sp): −0.02

## Cc1ccc2nc(C)c(C(=O)NCc3ccc(C(F)(F)F)cc3)n2c1 [ND-011176]
[1]; [5]
  Drug plasma concentration, individual mice: 18100 ng/mL and 22600 ng/mL
[1]; [6]
  Drug plasma concentration, individual mice: 5140 ng/mL and 7170 ng/mL
[1]; [7]
  Drug plasma concentration, individual mice: 29300 ng/mL and 38200 ng/mL
[1]; [8]
  Drug plasma concentration, individual mice: 5280 ng/mL and 4450 ng/mL
[1]; [9]
  Drug plasma concentration, individual mice: 34700 ng/mL and 44900 ng/mL
[1]; [10]
  Drug plasma concentration, individual mice: 432 ng/mL and 507 ng/mL
[1]; [11]
  Drug plasma concentration, Average: 41617^^ ng/mL
  Drug plasma concentration, individual mice: 39200^^ ng/mL and 41600^^ ng/mL and 44050^^ ng/mL
[1]; [12]
  Drug plasma concentration, individual mice: 110 ng/mL and 25 ng/mL and 88.2 ng/mL
[1]; [13]
  Drug plasma concentration, individual mice: BQL and 28.8 ng/mL
[1]; 24 h, PO 200 mg/kg, no ABT, 200 mg/kg
  Drug plasma concentration, individual mice: BQL
[1]; no ABT
  % AUC Extrap: 0.00%
  AUC(0-inf): 15700 ng·h/mL
  Cmax: 6730 ng/mL
  Tmax: 30 min
  half-life: 102 min
  AUC: 15700 ng·h/mL
[1]; [14]
  concentration at 0.5 h: 20100 ng/mL
[1]; [15]
  concentration at 0.5 h: 19600 ng/mL
[1]; [16]
  concentration at 2 h: 34600 ng/mL
[1]; [17]
  concentration at 2 h: 36400 ng/mL
[1]; [18]
  concentration at 4 h: 44800 ng/mL
[1]; [19]
  concentration at 4 h: 54800 ng/mL
[1]; po, 200 mg/kg
  AUC(0-x)/Dose: 78.4 ng·h/mL/mg/kg
  AUC(0-∞)/Dose: 78.4 ng·h/mL/mg/kg
  Cmax/Dose: 34 ng/mL/mg/kg
[1]; [20]
  concentration at 0.5 h: 6730 ng/mL
[1]; [21]
  concentration at 0.5 h: 7880 ng/mL
[1]; [22]
  concentration at 2 h: 6100 ng/mL
[1]; po, 200 mg/kg, 2 h, PO 200 mg/kg, no ABT, read-out: Drug plasma concentration, individual mice
  concentration at 2 h: 8580 ng/mL
[1]; [23]
  concentration at 4 h: 600 ng/mL
[1]; po, 200 mg/kg, 4 h, PO 200 mg/kg, no ABT, read-out: Drug plasma concentration, individual mice
  concentration at 4 h: 861 ng/mL
[1]; [24]
  concentration at 8 h: 74 ng/mL
[1]; [25]
  concentration at 12 h: 34 ng/mL
[1]; [26]
  concentration at 12 h: 40.1 ng/mL
[1]; po, 200 mg/kg, 24 h, PO 200 mg/kg, no ABT, read-out: Drug plasma concentration, Average
  concentration at 24 h: 8 ng/mL
[1]; po, 200 mg/kg, 24 h, PO 200 mg/kg, no ABT, read-out: Drug plasma concentration, individual mice
  concentration at 24 h: 8.09 ng/mL
[1]; [27]
  Cmax: 44800 ng/mL
[4]; 300 mg/kg
  cfu reduction with respect to non-treated controls: 2 log cfu
[4]; 500 mg/kg
  cfu reduction with respect to non-treated controls: 2 log cfu
[4]; any of the administered doses
  Signs of toxicity: No signs of toxicity

## NNC(=O)c1ccncc1 [INH, Isoniazid, reference compound]
[2]; Group 8, INH
  Weight: 19.6 and 20.2 and 20.1 and 19.9 and 19.2 and 20.8
[3]; Group 8, INH
  Spleen, gross necropsy observation: enlarged
[3]; INH (25)
  Lung Log10 CFU ± SEM: 4.06 ± 0.11 Log10 CFU
  Spleen Log10 CFU ± SEM: 2.13 ± 0.12^a Log10 CFU
  Log reduction vs CTL (Lg): 1.73
  Log reduction vs CTL (Sp): 2.87
